Experimental data taken from PMC8831383, “Visualization-Based Discovery of Vanin-1 Inhibitors for Colitis” (Frontiers in Chemistry, 2022).

Experiments:
[1] = target: T1, human recombinant VNN1 enzyme (Homo sapiens, UniProt O95497); assay: Inhibitory activity against human recombinant VNN1 enzyme in vitro with fluorescent probe PA-AFC; assay type: biochemical; conditions: human recombinant VNN1 30 ng/ml, probe PA-AFC 20 μM, 37°C, 30 min + 30 min
T1 sequence (O95497 22-513): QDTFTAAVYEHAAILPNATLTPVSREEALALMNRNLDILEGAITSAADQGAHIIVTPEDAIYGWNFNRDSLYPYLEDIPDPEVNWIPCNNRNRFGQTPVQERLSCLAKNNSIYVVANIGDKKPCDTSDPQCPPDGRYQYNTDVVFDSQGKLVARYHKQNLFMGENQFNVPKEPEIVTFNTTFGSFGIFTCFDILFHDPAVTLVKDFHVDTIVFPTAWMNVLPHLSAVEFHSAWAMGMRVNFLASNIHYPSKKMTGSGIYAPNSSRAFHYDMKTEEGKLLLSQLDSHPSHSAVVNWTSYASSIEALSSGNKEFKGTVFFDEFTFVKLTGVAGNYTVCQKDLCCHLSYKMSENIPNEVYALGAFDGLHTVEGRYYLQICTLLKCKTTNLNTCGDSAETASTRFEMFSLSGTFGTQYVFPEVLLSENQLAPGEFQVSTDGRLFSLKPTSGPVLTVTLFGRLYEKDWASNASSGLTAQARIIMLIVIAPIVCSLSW
Description: This study was used human recombinant VNN1 enzyme and fluorescent probe PA-AFC to determine the IC50 value of inhibitors.
Dilute the lead compound and each inhibitor to be tested with buffer to, for example, 400, 200, 100, 50, 25, 12.50, 6.25, 3.13, and 1.56 μM, 781 nM, 391 nM The gradient concentration of the solution. Prepare the human recombinant VNN1 enzyme solution at a concentration of 30 ng/ml. Prepare the fluorescent probe PA-AFC solution with a concentration of 20 μM.
Add 50 μl of gradient concentration of the inhibitor to be tested to each well of the black 96-well plate, and then continue to add 50 μl of the newly prepared human recombinant VNN1 enzyme solution to each well. Among them, the control group and the blank group were replaced with the same volume of buffer. After the solution is mixed, place the black 96-well plate on a shaker at 37°C for 30 min. Continue to add 100 μl of the prepared fluorescent probe solution to each well of the black 96-well plate. After mixing, place the black 96-well plate on a shaker at 37°C and incubate for 30 min. Take the black 96-well plate out of the shaker and place it in a POLARstar Omega microplate reader. Use a 420 nm filter for the excitation light and a 510 nm filter for the emission light. Record the fluorescence intensity data at 510 nm. Through GraphpadPrism mapping, the IC50 value of each inhibitor to be tested was obtained.

Vanin-1 enzyme [2] = target: T2, Vanin-1 enzyme (Homo sapiens, UniProt O95497); assay: Inhibition of Vanin-1 enzyme at the cellular level in ES-2-Fluc cells with bioluminescent probe PA-AL; assay type: cell-based; conditions: 30 min incubation with inhibitor, probe PA-AL 20 μM
T2 construct: endogenous in cells; host or cells: ES-2-Fluc (human ovarian cancer cells expressing firefly luciferase)
T2 sequence (O95497 22-513): T1 sequence (O95497 22-513)
Description: This study explores the inhibition of Vanin-1 enzyme at the cellular level using firefly luciferase labeled human ovarian cancer cells (ES-2-Fluc) and the bioluminescent probe PA-AL.
Take a black 96-well plate with a transparent bottom, dilute the cells to a cell suspension with a concentration of 4 × 10^5 cells/ml, add 100 μl to each well to reach about 40,000 cells in each well, and incubate at 37°C for 12 h. Dilute the lead compound and each inhibitor to be tested to the final concentration of 200, 100, 50, 25, 12.50, 6.25, 3.13, 1.56, and 0.78 μM, and add 100 μl to each well. After mixing, transfer to a shaker at 37°C and incubate the cells with the inhibitor for 30 min. Prepare bioluminescent probe PA-AL solution with a concentration of 20 μM. Immediately after adding, put it into in vivo imaging for bioluminescence imaging. The bioluminescence intensity value of each hole was analyzed by the software of the living body imager, and the exposure time was 1 min. Graphpad Prism software is used to draw the IC50 value of each inhibitor to be tested.

vanin-1 enzyme [3] = target: T3, vanin-1 enzyme (Mus musculus, UniProt Q9Z0K8); assay: Inhibition of vanin-1 in transgenic mice in vivo, bioluminescence imaging with probe PA-AL; parameters: species or system FVB-luc + mice; conditions: gavage, lead compound 25 mg/kg, compound a 50 mg/kg, PA-AL i.p. 1.5 h later
T3 construct: from tissue; host or cells: whole living FVB-luc+ transgenic mice
T3 sequence (Q9Z0K8 24-512): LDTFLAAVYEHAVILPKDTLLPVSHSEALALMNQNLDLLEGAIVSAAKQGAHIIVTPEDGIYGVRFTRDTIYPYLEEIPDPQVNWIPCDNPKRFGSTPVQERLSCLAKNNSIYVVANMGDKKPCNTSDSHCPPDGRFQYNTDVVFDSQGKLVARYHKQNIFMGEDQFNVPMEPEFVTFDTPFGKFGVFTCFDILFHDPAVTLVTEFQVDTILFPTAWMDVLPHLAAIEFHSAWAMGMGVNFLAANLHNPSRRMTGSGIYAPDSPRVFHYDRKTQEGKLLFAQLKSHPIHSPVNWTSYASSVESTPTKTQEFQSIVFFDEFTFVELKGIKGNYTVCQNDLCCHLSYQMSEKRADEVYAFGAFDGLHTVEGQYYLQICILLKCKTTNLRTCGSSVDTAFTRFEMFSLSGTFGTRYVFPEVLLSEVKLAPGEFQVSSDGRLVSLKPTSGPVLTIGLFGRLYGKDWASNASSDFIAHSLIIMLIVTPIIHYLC
Description: We divided FVB-luc + mice into three groups: • (1) Control group: gavage lead compound, the dose is 25 mg/kg, the gavage volume is 200 μl; • (2) Experimental group: gavage compound a, the dose is 50 mg/kg, the gavage volume is 200 μl; • (3) Blank group: Administer normal saline, the volume of intragastric administration is 200 μl.
After intragastric administration, mice were fed routinely for 1.5 h, and then mice in each group were anesthetized with 4% chloral hydrate solution and injected intraperitoneally with physiological saline solution of bioluminescent probe PA-AL (1 mM, 200 μl). In 55 min, the bioluminescence imaging of the whole body of each group of mice was measured every 5 min, and then the bioluminescence intensity was obtained by analyzing the images with the software of the in vivo imager.

[4] = system: TNBS-induced mouse colitis model; assay: TNBS-induced mouse colitis model; assay type: in vivo, C57BL/6J mice; conditions: TNBS colitis mice; lead compound 25 mg/kg, compound a 50 mg/kg once a day, 8 days; TNBS model group 10.0 ± 1.63
Description: The dose of TNBS used in this experiment is 2.0 mg/50% alcohol enema, each with a volume of 100 μl. The preparation method is 40 μl of 5% TNBS (w/v) aqueous solution, 50 μl of absolute ethanol, and 10 μl of distilled water. well mixed.
The study bred C57BL/6J mice adaptively with ordinary diet for 1 week, in an ordinary clean environment, normal light and free drinking water. The mice were randomly divided into 3 groups and numbered, fasted without water for 24 h before modeling. After weighing the mouse, use isoflurane anesthesia, insert a rubber hose with a diameter of about 0.2–0.3 cm into the mouse 3.5 cm from the anus, and slowly push 100 μl of the 2.0 mg TNBS/50% alcohol mixture solution through the hose Enter the colon, slowly pull out the plastic tube after the administration, pinch the anus with your hand, and invert it for 1 min, so that the model agent can fully penetrate the intestinal cavity of the mouse. Then put them back into the breeding cage to keep lying down, wait for the mice to wake up naturally, and create a model together. The mice in the control group were given 200 μl of lead compound solution (25 mg/kg) once a day, the mice in the experimental group were given 200 μl of compound 1c solution (50 mg/kg) once a day, and the mice in the model group were given physiological salt once a day 200 μl of aqueous solution. […]

vanin-1 = system: vanin-1; parameters: method as in Jansen et al., 2013; conditions: ref Jansen et al., 2013; cited from earlier work

| IC50 [1] | IC50 (Vanin-1 enzyme [2]) | melting point | bioluminescence intensity at the peak relative to the blank group (vanin-1 enzyme [3]; 30 min after probe injection) | bioluminescence intensity of transgenic mice at the peak (vanin-1 enzyme [3]; about 30 min after probe injection) | SMILES | DAI score [4] | IC50 (vanin-1) |
| --- | --- | --- | --- | --- | --- | --- | --- |
| 26.2 ± 0.56 µM | 12.3 ± 1.28 µM | 126.1 to 126.5 °C |  |  | O=C(c1ccc(NCc2cccnc2)cc1)N1CC2(CCOCC2)C1 [b, (4-((pyridin-3-ylmethyl)amino)phenyl)(7-oxa-2-azaspiro[3.5]nonan-2-yl)methanone] |  |  |
| 51.5 ± 1.65 µM | 39.8 ± 0.91 µM | 123.6 to 124.1 °C |  |  | O=C(c1ccc(NCc2cnccn2)cn1)N1CCC2(CCOCC2)C1 [g, (5-((pyrazin-2-ylmethyl)amino)pyridin-2-yl)(8-oxa-2-azaspiro[4.5]decan-2-yl)methanone] |  |  |
| 28.5 ± 0.35 µM | 15.3 ± 0.75 µM | 191.6 to 191.9 °C |  |  | O=C(c1ccc(NCc2cnccn2)cc1)N1CC2(CCOCC2)C1 [d, (4-((pyrazin-2-ylmethyl)amino)phenyl)(7-oxa-2-azaspiro[3.5]nonan-2-yl)methanone] |  |  |
| 138.3 ± 0.68 µM | 80.6 ± 6.21 µM | 136.4 to 136.9 °C |  |  | COc1cc(C(=O)N2CC3(CCOCC3)C2)ccc1NCc1cccnc1 [j, (3-methoxy-4-((pyridin-3-ylmethyl)amino)phenyl)(7-oxa-2-azaspiro[3.5]nonan-2-yl)methanone] |  |  |
| 30.33 ± 0.11 µM | 16.5 ± 1.92 µM | 173.4 to 173.8 °C |  |  | O=C(c1ccc(NCc2cnccn2)cc1)N1CCC2(CCOCC2)C1 [c, (4-((pyrazin-2-ylmethyl)amino)phenyl)(8-oxa-2-azaspiro[4.5]decan-2-yl)methanone] |  |  |
| 20.2 ± 1.32 µM | 9.08 ± 0.57 µM | 113.2 to 114.7 °C | about one-half | significantly reduced | O=C(c1ccc(NCc2cccnc2)cc1)N1CCC2(CCOCC2)C1 [a, (4-((pyridin-3-ylmethyl)amino)phenyl)(8-oxa-2-azaspiro[4.5]decan-2-yl)methanone] | 6.7 ± 0.95 |  |
|  |  | 92.4 to 93.6 °C |  |  | CC(C)(CO)C(O)C(=O)NCCC(=O)Nc1ccc2c(C(F)(F)F)cc(=O)oc2c1 (centres unmarked) |  |  |
| 84.6 ± 2.5 µM | 59.6 ± 5.27 µM | 104.6 to 105 °C |  |  | O=C(c1ccc(NCc2cnccn2)cn1)N1CC2(CCOCC2)C1 [h, (5-((pyrazin-2-ylmethyl)amino)pyridin-2-yl)(7-oxa-2-azaspiro[3.5]nonan-2-yl)methanone] |  |  |
| 115 ± 13 µM | 93.7 ± 8.08 µM | 128.2 to 129.6 °C |  |  | COc1cc(C(=O)N2CCC3(CCOCC3)C2)ccc1NCc1cccnc1 [i, (3-methoxy-4-((pyridin-3-ylmethyl)amino)phenyl)(8-oxa-2-azaspiro[4.5]decan-2-yl)methanone] |  |  |
| 43.7 ± 1.07 µM | 35.8 ± 2.15 µM | 176.5 to 177.2 °C |  |  | O=C(c1ccc(NCc2cccnc2)cn1)N1CCC2(CCOCC2)C1 [e, (5-((pyridin-3-ylmethyl)amino)pyridin-2-yl)(8-oxa-2-azaspiro[4.5]decan-2-yl)methanone] |  |  |
| 46.2 ± 1.27 µM | 22 ± 2.66 µM | 202 to 202.3 °C |  |  | O=C(c1ccc(NCc2cccnc2)cn1)N1CC2(CCOCC2)C1 [f, (5-((pyridin-3-ylmethyl)amino)pyridin-2-yl)(7-oxa-2-azaspiro[3.5]nonan-2-yl)methanone] |  |  |
|  |  |  |  |  | CC(C)(CO)[C@@H](O)C(=O)NCCC(=O)Cc1ccccc1 [RR6] |  | 0.54 µM |
